Experimental data published in patent US6344206B1, “Combination of a retinoid with a polyamine polymer” (L'Oreal, priority 1997, dated 2002).

Assay: Test of stability of all-trans-retinol in ethanol during preservation at 50° C. (residual retinol by HPLC)
Format: physicochemical
Details: retinol 0.3% w/v in ethanol without stabilizer, 20 days of storage at 50° C., aerobic medium
Experimental: The stability of a retinoid is defined in accordance with the present invention by the percentage of retinoid which remains in its original form after the composition containing the retinoid has been stored for a given period and at a given temperature.
The study conditions are the following:
PEI at 0.25, 0.5 and 1% (by weight/volume) in ethanol;
All-trans-retinol marketed by Fluka at 0.3% (by weight/volume) in ethanol;
Aerobic medium with 55 vol % air and 45 vol % ethanol;
Preservation at 50° C. in an oven;
The level of residual retinol after one month of preservation at 50° C. in an aerobic medium (55% of volume of air) is monitored by HPLC (on a Spherisorb ODS1 C18 column) by elution with an H2O/CH3CO2H/CH3CO2NH4/acetonitrile:
The level of residual retinol after two months of storage at 50° C. in an aerobic medium (55 vol % air) is monitored by HPLC (same conditions as in Test 1).
The level of residual retinol after one month of storage at 50° C. in an aerobic medium (55 vol % air) is monitored by HPLC (same conditions as in Test 1).
From an alcoholic solution of retinol at 0.26%, the level of residual retinol after several days of storage of the formulae at 50° C. in aerobic medium (55 vol % of air) is monitored by HPLC. […]

Degradation of retinol: ~99%
Structure (SMILES): CC1=C(/C=C/C(C)=C/C=C/C(C)=C/CO)C(C)(C)CCC1 [retinol, All-trans-retinol]
